The numbers were not newly measured in US20220054404A1, “SUBCUTANEOUS ADMINISTRATION OF NANOPARTICLES COMPRISING AN MTOR INHIBITOR AND ALBUMIN FOR TREATMENT OF DISEASES” (Abraxis BioScience, LLC, priority 2019, published 2022), which cites them from elsewhere.

This data set deals with ABCB1/ABCG2.

Take `COc1ccc(COc2cc3oc(=O)c4cc(C(C)O)ccc4c3cc2OC)cc1` (stereo not shown) [Palomid 529]: the “Affinity for ABCB1/ABCG2” value is listed as “lacks affinity for ABCB1/ABCG2”.
